Results published in US20120035125A1, “FULVIC ACID IN COMBINATION WITH FLUCONAZOLE OR AMPHOTERICIN B FOR THE TREATMENT OF FUNGAL INFECTIONS” (Natracine UK Limited, priority 2009, published 2012).
In brackets after ≈: the same amount, converted by molar mass.

Key:
[1] = tested on: Absidia corymbifera; test: In vitro susceptibility (MIC, broth microdilution), CHD-FA and amphotericin B; assay type: cell-based; settings: Lichtheimia corymbifera
Protocol: (§1) Each culture was grown on Sabouraud agar at 37° C. for 10 days to ensure purity and to allow spores to mature
(§2) RPMI-1640 (Sigma, Dorset, UK) supplemented to 2% glucose (Sigma), buffered with morpholinopropanesulfonic acid (MOPS), (Sigma) and adjusted to pH 7.0 was used as recommended in the Clinical Laboratory Standards M38A document (Reference method for broth dilution antifungal susceptibility testing of conidium-forming filamentous fungi. Approved standard. Document M38-A 2002a. NCCLS, Wayne, Pa. 2002. NCCLS, Wayne, Pa., USA).
(§3) a) All fungi were cultured in ambient air at 35-37° C. on recovery medium (Sabouraud dextrose agar) for 8-10 days before testing.
(§4) b) Inoculum suspensions were prepared from day 8 to 10 day cultures grown on Sabouraud dextrose agar at 37° C. in vented tissue culture flasks to avoid crosscontamination. Spores were harvested by flooding the surface of the growth with 25 ml of sterile phosphate buffered saline plus 0.05% Tween 80. The spore count was adjusted using a counting chamber.
(§5) c) The inoculum was completely suspended by vigorous shaking on a vortex mixer for 15 s. […] Drug-free and cell-free controls were included. (The RPMI medium used in the plates was prepared at either 2× or 4×the final strength to allow for dilution once the inoculum and diluted CHD-FA was added).
(§6) Sterile plastic, disposable, microtitration plates with 96 flat-bottom wells were used.
(§7) a) Column 1 of the microtitration tray was filled with 100 μL of sterile water containing four times the final drug concentration (16 mg/L amphotericin B).
(§8) b) Columns 2-12 were filled with 50 μL of distilled water
(§9) c) 50 μL amounts were taken from wells in column 1 and diluted two-fold by transferring them to column 2 with a multichannel pipette (±2% coefficient of variation). 50 μL samples were then removed from column 2 and transferred to column 3, and so on through to column 10. The last 50 μL of diluted drug is then discarded. Thus, each well in columns 1-10 will contain 50 μL of water containing four times the final antifungal drug concentrations.
(§10) Stock solutions of CHD-FA were produced containing 4%, 2%, 1%, 0.5% and 0.25% of the native compound.
(§11) 100 μL of the diluted CHD-FA was added to microtitration trays in so that row A contains a final dilution of 2% row B, 1%, row C 0.5%, row D 0.25% row E 0.125% and row F diluent only.
(§12) 50 μL of the diluted spore suspension in 4×RPMI was added to all wells. This produces a well containing 200 μL final volume (made up of 50 μL diluted antifungal, 100 μL diluted CHD-FA or diluent, 50 μL of 4×RPMI containing fungal spores)
(§13) All plates were incubated at 37° C. in air in a darkened incubator.
(§14) Plates were read visually with the endpoint taken as the lowest concentration of drug that inhibited growth by 50% of that of the drug free control.

[2] = tested on: Aspergillus flavus; test: as above; assay type: cell-based; settings: for MIC: Aspergillus flavus
Protocol: as §1, §2, §3, §4, §5, §6, §7, §8, §9, §10, §11, §12, §13, §14

[3] = tested on: Aspergillus fumigatus; test: as above; assay type: cell-based; settings: for MIC: Aspergillus fumigatus
Protocol: as §1, §2, §3, §4, §5, §6, §7, §8, §9, §10, §11, §12, §13, §14

[4] = tested on: Aspergillus terreus; test: as above; assay type: cell-based; settings: for MIC: Aspergillus terreus
Protocol: as §1, §2, §3, §4, §5, §6, §7, §8, §9, §10, §11, §12, §13, §14

[5] = tested on: Fusarium solani; test: as above; assay type: cell-based
Protocol: as §1, §2, §3, §4, §5, §6, §7, §8, §9, §10, §11, §12, §13, §14

[6] = tested on: Aspergillus; settings: stated to be toxic to the subject; cited from earlier work

- MIC ([1]; Absidia isolate 1): 0.25 mg/L (≈ 0.271 µM)
- MIC ([1]; Absidia isolate 2): 0.06 mg/L (≈ 0.0649 µM)
- Amphotericin MIC ([2]; A. flavus strain 1, CHD-FA Dilution 0.125): > 4 mg/L
- Amphotericin MIC ([2]; A. flavus strain 1, CHD-FA Dilution 0.25): No Growth
- Amphotericin MIC ([2]; A. flavus strain 1, CHD-FA Dilution 0.5): No Growth
- Amphotericin MIC ([2]; A. flavus strain 2, CHD-FA Dilution 0.125): 0.25 mg/L
- Amphotericin MIC ([2]; A. flavus strain 2, CHD-FA Dilution 0.25): No Growth
- Amphotericin MIC ([2]; A. flavus strain 2, CHD-FA Dilution 0.5): No Growth
- MIC ([2]; A. flavus isolate 1): 4 mg/L (≈ 4.33 µM)
- MIC ([2]; A. flavus isolate 2): 0.5 mg/L (≈ 0.541 µM)
- Amphotericin MIC ([3]; A. fumigates strain 1, CHD-FA Dilution 0.125): 0.06 mg/L
- Amphotericin MIC ([3]; A. fumigates strain 1, CHD-FA Dilution 0.25): No Growth
- Amphotericin MIC ([3]; A. fumigates strain 1, CHD-FA Dilution 0.5): No Growth
- Amphotericin MIC ([3]; A. fumigates strain 2, CHD-FA Dilution 0.125): 0.125 mg/L
- Amphotericin MIC ([3]; A. fumigates strain 2, CHD-FA Dilution 0.25): No Growth
- Amphotericin MIC ([3]; A. fumigates strain 2, CHD-FA Dilution 0.5): No Growth
- MIC ([3]; A. fumigatus isolate 1): 0.5 mg/L (≈ 0.541 µM)
- MIC ([3]; A. fumigatus isolate 2): 0.25 mg/L (≈ 0.271 µM)
- Amphotericin MIC ([4]; A. terreus strain 1, CHD-FA Dilution 0.125): 0.25 mg/L
- Amphotericin MIC ([4]; A. terreus strain 1, CHD-FA Dilution 0.25): No Growth
- Amphotericin MIC ([4]; A. terreus strain 1, CHD-FA Dilution 0.5): No Growth
- Amphotericin MIC ([4]; A. terreus strain 2, CHD-FA Dilution 0.125): 0.125 mg/L
- Amphotericin MIC ([4]; A. terreus strain 2, CHD-FA Dilution 0.25): No Growth
- Amphotericin MIC ([4]; A. terreus strain 2, CHD-FA Dilution 0.5): No Growth
- MIC ([4]; A. terreus isolate 1): 0.5 mg/L (≈ 0.541 µM)
- MIC ([4]; A. terreus isolate 2): 1 mg/L (≈ 1.08 µM)
- Amphotericin MIC ([5]; Fusarium isolate 2): 2.0 mg/L
- MIC ([5]; Fusarium solani, Fusarium isolate 1): 2 mg/L (≈ 2.16 µM)
Compound: C[C@@H]1[C@H](O)[C@@H](C)/C=C/C=C/C=C/C=C/C=C/C=C/C=C/[C@H](O[C@@H]2O[C@H](C)[C@@H](O)[C@H](N)[C@@H]2O)C[C@@H]2O[C@](O)(C[C@@H](O)C[C@@H](O)[C@H](O)CC[C@@H](O)C[C@@H](O)CC(=O)O[C@H]1C)C[C@H](O)[C@H]2C(=O)O [Amphotericin B]
- dose required to inhibit Aspergillus [6]: 3 mg/L
